Results as given in PubChem BioAssay AID1205 (EPA DSSTox, 2008).
Activity calls are given as the source filed them.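 Rule for the calls: active = tumour findings in long-term animal cancer tests in more than one sex, species or organ; inactive = no tumour finding and more than one negative test.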 Where a SMILES comes first, the peptide text is derived from it.

Experiment: DSSTox (CPDBAS) Carcinogenic Potency Database Summary MultiCellCall Results
Conditions: animal carcinogenicity bioassays, multi-cell call summary
Description: The Carcinogenic Potency Database (CPDB) is a unique and widely used international resource of the results of over 6500 chronic, long-term animal cancer tests on over 1500 chemical substances. The CPDB provides easy access to the bioassay literature, with qualitative and quantitative analyses of both positive and negative experiments that have been published over the past 50 years in the general literature and by the National Cancer Institute/National Toxicology Program. The CPDB standardizes the diverse literature of cancer bioassays that vary widely in protocol, histopathological examination and nomenclature, and in the published author's choices of what information to provide in their papers. Results are reported in the CPDB for tests in rats, mice, hamsters, dogs, and nonhuman primates, and are based on the most positive result among all experiments for each sex-species. The DSSTox CPDBAS (all species) file incorporates data from the CPDB Summary Tables for the full list of over 1500 chemical substances tested in at least one species. A summary MultiCellCall, based on experimental bioassay results of one or more species, is provided in the DSSTox CPDBAS file (see Source URL) for more than 1150 chemical substances.
Associated TD50 values and tumor site details for the relevant species/sex experiment supporting the overall CPDBAS MultiSiteCall are provided in the full DSSTox CPDBAS file (see Comment) and the corresponding CPDBAS Species Bioassay in PubChem. ActivityScore is computed as follows: multispecies=50, multisex=30, multisite=20, with combination scores computed as sums of these values, e.g. multispecies+multisite=70.

| Compound | outcome |
| --- | --- |
| O=c1[nH]c(=O)n(C2CCCO2)cc1F (centres undefined) | inactive; multisex inactive; multispecies inactive |
| C/C=C/C=C/C=O | active; multisex active; multispecies active |
| O=C(O)c1nn(Cc2ccc(Cl)cc2Cl)c2ccccc12 | inactive; multisex inactive |
| c1ccc2[nH]c(-c3cscn3)nc2c1 | inactive; multisex inactive; multispecies inactive |
| CC[C@H](OC(C)=O)C(C[C@H](C)N(C)C)(c1ccccc1)c1ccccc1 | active; multisex active |
| CC(=O)OC[C@H]1O[C@H](O[C@]2(COC(C)=O)O[C@H](COC(=O)C(C)C)[C@@H](OC(=O)C(C)C)[C@@H]2OC(=O)C(C)C)[C@H](OC(=O)C(C)C)[C@@H](OC(=O)C(C)C)[C@@H]1OC(=O)C(C)C | inactive; multisex inactive; multispecies inactive |
| C1CO1 | active; multisite active; multisex active; multispecies active |
| Cc1ccc(N)cc1 | active; multisex active |
| CCN(CC)N=O | active; multisite active; multisex active; multispecies active |
| CC(=O)Nc1ccc(S(=O)(=O)O)c2cc(S(=O)(=O)O)c(N=Nc3ccc(N=Nc4ccc(S(=O)(=O)O)cc4)c4ccc(S(=O)(=O)O)cc34)c(O)c12 | inactive; multisex inactive; multispecies inactive |
| COc1c(Cl)c(Cl)c(Cl)c(Cl)c1Cl | active; multisite active; multispecies active |
| ClCc1ccccc1 | active; multisex active |
| NNC=O | active; multisex active |
| CC(C)OC(=O)Nc1cccc(Cl)c1 | inactive; multisex inactive; multispecies inactive |
| COc1c(Cl)c(Cl)c([N+](=O)[O-])c(Cl)c1Cl | inactive; multisex inactive; multispecies inactive |
| CCN(CC)C(=S)S | inactive; multisex inactive; multispecies inactive |
| Cc1cc(Cc2cc(C)cc(C(C)(C)C)c2O)c(O)c(C(C)(C)C)c1 | inactive; multisex inactive |
| Cn1cc(OCC(O)CNC(C)(C)C)c2ccccc2c1=O (centres undefined) | inactive; multisex inactive; multispecies inactive |
| Cc1cc(C)nc(NS(=O)(=O)c2ccc(N)cc2)n1 | active; multisex active |
| CCCCCCN(N=O)C(N)=O | active; multisite active; multisex active |
| COP(=O)(OC)OC=C(Cl)Cl | active; multisite active; multisex active; multispecies active |

| Compound | outcome |
| --- | --- |
| NC(=O)Cc1c([O-])on[n+]1Cc1ccccc1 | active; multisex active; multispecies active |
| O=NN1CCCC1 | active; multisite active; multisex active; multispecies active |
| O=C(O)C(Cl)Cl | active; multisex active; multispecies active |
| CCCOC(=O)C1c2cc3c(cc2CC(C)C1C(=O)OCCC)OCO3 (centres undefined) | inactive; multisex inactive |
| CCCCN(N)CCCC | active; multisite active; multisex active |
| Cc1ccc2ccccc2c1 | inactive; multisex inactive |
| Nc1c(Cl)c(Cl)nc(C(=O)O)c1Cl | inactive; multisex inactive; multispecies inactive |
| C[N+](C)(C)CCCl | inactive; multisex inactive; multispecies inactive |
| CC(Cl)Cl | inactive; multisex inactive; multispecies inactive |
| Nc1ccc2ccccc2c1 | active; multisite active; multisex active; multispecies active |
| O=P(OCC(Br)CBr)(OCC(Br)CBr)OCC(Br)CBr (centres undefined) | active; multisite active; multisex active; multispecies active |
| COc1cc(CNC(=O)CCCC/C=C/C(C)C)ccc1O | active; multisex active |
| C[C@](N)(Cc1ccc(O)c(O)c1)C(=O)O | inactive; multisex inactive; multispecies inactive |
| CN[C@@H](C)[C@H](O)c1ccccc1 | inactive; multisex inactive; multispecies inactive |
| CCSCCC(N)C(=O)O (centres undefined) | active; multisex active; multispecies active |
| C=C1C(CCl)(CCl)C2(Cl)C(Cl)C(Cl)C1(Cl)C2(Cl)Cl (centres undefined) | active; multisex active |
| C/C=C(\C)C(=O)O[C@@H]1CCN2CC=C(COC(=O)C(O)(C(C)C)C(C)O)[C@H]12 (some centres undefined) | active; multisite active |
| Cn1cnc([N+](=O)[O-])c1Sc1ncnc2nc[nH]c12 | active; multisite active |
| Nc1ccccc1C(=O)O | inactive; multisex inactive; multispecies inactive |
| c1ccc2sc(SSc3nc4ccccc4s3)nc2c1 | inactive; multisex inactive |
| CC(C)CON=O | active; multisex active; multispecies active |

| Compound | outcome |
| --- | --- |
| C=CC1=C(C)C2=CC3=NC(=C(CC(=O)[O-])C4=NC(=C(C)C4=C([O-])[O-])C=c4[n-]c(c(C)c4CC)=CC1=N2)[C@@H](CCC(=O)[O-])[C@@H]3C.[Cu+2].[Na+].[Na+].[Na+] | inactive; multisex inactive |
| CCN(CC)C(=S)S[Te](SC(=S)N(CC)CC)(SC(=S)N(CC)CC)SC(=S)N(CC)CC | inactive; multisex inactive; multispecies inactive |
| Nc1ccc(Cc2ccc(N)cc2)cc1 | active; multisite active; multisex active; multispecies active |
| CC(=O)OCc1ccccc1 | active; multisite active; multisex active |
| ClC1=C(Cl)C2(Cl)C3C(Cl)OC(Cl)C3C1(Cl)C2(Cl)Cl (centres undefined) | inactive; multisex inactive |
| [Na+] | inactive; multisex inactive; multispecies inactive |
| Nc1cc(S(=O)(=O)O)cc2cc(S(=O)(=O)O)c(N=Nc3ccc(-c4ccc(N=Nc5c(S(=O)(=O)O)cc6cc(S(=O)(=O)O)cc(N)c6c5O)cc4)cc3)c(O)c12 | active; multisex active |
| Clc1nc(Cl)nc(Nc2ccccc2Cl)n1 | inactive; multisex inactive; multispecies inactive |
| CCCOC(=O)c1cc(O)c(O)c(O)c1 | inactive; multisex inactive; multispecies inactive |
| CC(C)NCC(O)c1ccc(NS(C)(=O)=O)cc1 (centres undefined) | inactive; multisex inactive; multispecies inactive |
| c1cc(OCC2CO2)cc(OCC2CO2)c1 (centres undefined) | active; multisex active; multispecies active |
| NC(N)=NC(N)=NCCc1ccccc1 | inactive; multisex inactive; multispecies inactive |
| ClC#CCl | active; multisite active; multisex active; multispecies active |
| O=[N+]([O-])c1cc([As](=O)(O)O)ccc1O | inactive; multisex inactive; multispecies inactive |
| CCOC(=O)CC(SP(=O)(OC)OC)C(=O)OCC (centres undefined) | inactive; multisex inactive; multispecies inactive |
| ClCC(Cl)(Cl)Cl | active; multisex active |
| NNC(=O)c1ccccc1 | active; multisite active; multisex active |
| CC(=O)Nc1ccc2c(c1)Cc1cc(NC(C)=O)ccc1-2 | inactive; multispecies inactive |
| CCC(O)OC(O)CC (centres undefined) | inactive; multisex inactive; multispecies inactive |
| NC(=O)c1ccccc1C(N)=O | inactive; multisex inactive; multispecies inactive |
| O=c1c(CO)c/c(=N/Nc2ccc(S(=O)(=O)O)c3ccccc23)c(=O)/c1=N/Nc1ccc(S(=O)(=O)O)c2ccccc12 | inactive; multisex inactive |

| Compound | outcome |
| --- | --- |
| O=NN1CCCCC1c1cccnc1 (centres undefined) | active; multisex active |
| OCl | inactive; multisex inactive; multispecies inactive |
| CC1(C)COC1=O | active; multisex active |
| C=C/C=N/O | inactive; multisex inactive |
| O=C1c2ccccc2C(=O)N1SC(Cl)(Cl)Cl | active; multisite active; multisex active |
| CC(=O)Nc1nnc(-c2ccc([N+](=O)[O-])o2)s1 | active; multisite active; multispecies active |
| NC1CCCCC1 | inactive; multisex inactive; multispecies inactive |
| O.O.O.O.O.O.O.O.O=S(=O)([O-])[O-].O=S(=O)([O-])[O-].O=S(=O)([O-])[O-].[Cd+2].[Cd+2].[Cd+2] | inactive; multispecies inactive |
| CN1C2CC[C@@H]1CC(NC(=O)c1cc(Cl)cc3c1OC(C)(C)C3)C2 (some centres undefined) | inactive; multisex inactive |
| C#C[C@]1(O)CC[C@H]2[C@@H]3CCc4cc(OC)ccc4[C@H]3CC[C@@]21C | inactive; multisex inactive |
| Cc1cc(-c2ccc(N)c(C)c2)ccc1N | active; multisite active; multisex active; multispecies active |
| CC(=O)Nc1ccc(O)cc1 | active; multisite active; multisex active; multispecies active |
| CC[C@H]1OC(=O)C[C@@H](O)[C@H](C)[C@@H](O[C@@H]2O[C@H](C)[C@@H](O[C@H]3C[C@@](C)(O)[C@@H](O)[C@H](C)O3)[C@H](N(C)C)[C@H]2O)[C@@H](CC=O)C[C@@H](C)C(=O)/C=C/C(C)=C/C1CO[C@@H]1O[C@H](C)[C@@H](O)[C@@H](OC)[C@H]1OC (some centres undefined) | inactive; multisex inactive |
| COc1ccccc1[N+](=O)[O-] | active; multisite active; multisex active; multispecies active |
| C=CCc1ccc(O)c(OC)c1 | inactive; multisex inactive; multispecies inactive |
| C1N2CN3CN1CN(C2)C3 | inactive; multisex inactive; multispecies inactive |
| COc1cc(N)ccc1N=Nc1ccccc1 | inactive; multisex inactive |
| COC(=O)[C@H](Cc1ccccc1)NC(=O)[C@@H](N)CC(=O)O (H-Asp-Phe-OMe) | inactive; multisex inactive |
| O=NN(CCCl)C(=O)N[C@@H]1[C@@H](O)[C@H](O)[C@@H](CO)O[C@@H]1O | active; multisex active |
| NNc1nc(-c2ccc([N+](=O)[O-])cc2)cs1 | active; multisite active; multispecies active |
| CNC(=O)O/N=C/C(C)(C)SC | inactive; multisex inactive; multispecies inactive |
